Data taken from ChEMBL document CHEMBL4359925, “Rational discovery of a highly novel and selective mTOR inhibitor” (Bioorg Med Chem Lett, 2019).

What was measured:
[1] = target: Serine/threonine-protein kinase mTOR (Homo sapiens, UniProt P42345); assay: Inhibition of human mTOR measured after 30 mins in presence of ATP by Lanthascreen TR-FRET assay
[2] = target: Phosphatidylinositol 4,5-bisphosphate 3-kinase catalytic subunit alpha isoform (Homo sapiens, UniProt P42336); assay: Inhibition of PI3K alpha (unknown origin)
Sequence of Phosphatidylinositol 4,5-bisphosphate 3-kinase catalytic subunit alpha isoform (P42336 whole entry, canonical isoform): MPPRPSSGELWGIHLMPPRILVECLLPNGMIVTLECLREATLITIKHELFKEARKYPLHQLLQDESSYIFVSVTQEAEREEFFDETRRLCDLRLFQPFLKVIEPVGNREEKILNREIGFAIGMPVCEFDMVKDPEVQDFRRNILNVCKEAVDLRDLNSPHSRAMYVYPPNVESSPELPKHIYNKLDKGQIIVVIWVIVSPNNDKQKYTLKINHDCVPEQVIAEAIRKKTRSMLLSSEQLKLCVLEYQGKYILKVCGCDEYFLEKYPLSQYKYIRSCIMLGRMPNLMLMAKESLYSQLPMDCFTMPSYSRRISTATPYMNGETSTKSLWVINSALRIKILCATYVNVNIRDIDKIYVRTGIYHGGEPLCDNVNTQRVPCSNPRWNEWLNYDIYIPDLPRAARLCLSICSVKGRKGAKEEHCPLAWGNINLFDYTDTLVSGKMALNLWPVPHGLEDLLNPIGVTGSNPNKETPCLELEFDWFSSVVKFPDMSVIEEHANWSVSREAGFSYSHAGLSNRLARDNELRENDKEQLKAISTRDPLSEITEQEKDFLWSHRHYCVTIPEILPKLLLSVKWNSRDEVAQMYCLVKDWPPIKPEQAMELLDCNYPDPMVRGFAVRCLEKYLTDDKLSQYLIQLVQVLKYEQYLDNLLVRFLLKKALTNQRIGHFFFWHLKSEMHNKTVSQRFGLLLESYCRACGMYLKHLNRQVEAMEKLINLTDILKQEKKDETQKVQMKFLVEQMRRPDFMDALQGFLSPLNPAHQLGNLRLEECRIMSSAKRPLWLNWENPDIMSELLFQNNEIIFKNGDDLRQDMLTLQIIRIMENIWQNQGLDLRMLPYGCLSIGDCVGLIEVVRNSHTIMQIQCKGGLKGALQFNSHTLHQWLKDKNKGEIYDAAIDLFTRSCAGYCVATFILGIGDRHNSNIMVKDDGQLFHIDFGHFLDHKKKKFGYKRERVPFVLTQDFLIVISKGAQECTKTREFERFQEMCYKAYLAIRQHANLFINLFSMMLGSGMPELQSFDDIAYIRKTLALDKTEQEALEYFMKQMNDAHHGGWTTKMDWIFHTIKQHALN

CNC(=O)Nc1ccc(-c2ncc3c(n2)N2CCOC[C@@]2(C)C(=O)N3CC2CC2)cc1
IC50 [1]: 7.94 nM | IC50 [2]: 79.4 nM

O=C(Nc1ccc(-c2nc(N3CCOCC3)c3c(n2)C2(CC2)OC3)cc1)NC1CC1
IC50 [1]: < 31.6 nM
